Assay results reported in ChEMBL document CHEMBL1671730, “Rapid and sensitive liquid chromatography/mass spectrometry assay for caspofungin in human aqueous humor” (Antimicrob Agents Chemother, 2010).

What was measured:
Format in all cases: ADME, organism-based, Aqueous humor of eyeball
Conditions in all cases: in vivo
[1] = species: Homo sapiens; assay: Drug level in human aqueous humor sample measured on basis of intraday target compound concentration of 300 ng/ml by LC/MS method
[2] = species: Homo sapiens; assay: Drug level in human aqueous humor sample measured on basis of interday target compound concentration of 4000 ng/ml by LC/MS method
[3] = species: Homo sapiens; assay: Drug level in human aqueous humor sample measured on basis of intraday target compound concentration of 4000 ng/ml by LC/MS method
[4] = species: Homo sapiens; assay: Drug level in human aqueous humor sample measured on basis of interday target compound concentration of 30 ng/ml by LC/MS method
[5] = species: Homo sapiens; assay: Drug level in human aqueous humor sample measured on basis of interday target compound concentration of 300 ng/ml by LC/MS method
[6] = species: Homo sapiens; assay: Drug level in human aqueous humor sample measured on basis of intraday target compound concentration of 30 ng/ml by LC/MS method

- Drug uptake [1]: 280 ng/mL
- Drug uptake [2]: 3965 ng/mL
- Drug uptake [3]: 3986 ng/mL
- Drug uptake [4]: 31.4 ng/mL
- Drug uptake [5]: 282 ng/mL
- Drug uptake [6]: 26.9 ng/mL
SMILES: CC[C@H](C)C[C@H](C)CCCCCCCCC(=O)N[C@H]1C[C@@H](O)[C@@H](NCCN)NC(=O)[C@@H]2[C@@H](O)CCN2C(=O)[C@H]([C@H](O)CCN)NC(=O)[C@H]([C@H](O)[C@@H](O)c2ccc(O)cc2)NC(=O)[C@@H]2C[C@@H](O)CN2C(=O)[C@H]([C@@H](C)O)NC1=O [CASPOFUNGIN]
